According to paper PMC9969250 (2023):

Key:
[1] = test system: A (boxcar A) (DNA, aptamer) CGTCTAATCTAATCAGGCGACAAGGAAAATCCTTCAACGAAGTGGGTCGCCCTAACTCTCTATCCG; experiment: quinine fluorescence quenching; conditions: PBS, 5 mM MgCl2; pH 7.4, 20 °C; 0.1 μM quinine; three-parameter fit; per site
[2] = test system: MN4 (DNA, aptamer) GGCGACAAGGAAAATCCTTCAACGAAGTGGGTCGCC; experiment: quinine fluorescence quenching; conditions: PBS, 5 mM MgCl2; pH 7.4, 20 °C; 0.1 μM quinine; three-parameter fit; per site

Work on C=C[C@H]1CN2CC[C@H]1C[C@H]2[C@H](O)c1ccnc2ccc(OC)cc12 yielded a KD [1] of 380 ± 130 nM and a KD [2] of 280 ± 60 nM.
